From patent US10087193B2, “Crystalline forms of dolutegravir sodium” (Mylan Laboratories Ltd., priority 2014, dated 2018)

Legend:
[1] = Physical and chemical stability on storage (PXRD, Karl Fischer water content, HPLC purity); conditions: for change in PXRD pattern on storage / degradation on storage / increase in moisture content on storage / physical and chemical stability (conclusion): 6 months at 40° C./75% RH and at 25° C./60% RH
Procedure: The physical and chemical stability of dolutegravir sodium Form-M2 and Form-M4 was determined by storing the samples at 40° C./75% relative humidity (RH) and at 25° C./60% RH for 6 months. At different time points during storage, the crystal structure of the material was analyzed by PXRD, the water content by Karl Fischer, and by HPLC for final purity.

[2] = Thermodynamic stability of the crystalline form; assay type: physicochemical
[3] = storage at 25° C./60% RH, 1 month
[4] = storage at 25° C./60% RH, 3 months
[5] = storage at 25° C./60% RH, 6 months
[6] = storage at 25° C./60% RH, Initial
[7] = storage at 40° C./75% RH, 1 month
[8] = storage at 40° C./75% RH, 3 months
[9] = storage at 40° C./75% RH, 6 months
[10] = storage at 40° C./75% RH, Initial

| SMILES | change in PXRD pattern on storage [1] | degradation on storage [1] | increase in moisture content on storage [1] | physical and chemical stability (conclusion) [1] | HPLC purity (%) [1, 3] | PXRD (polymorph found) [1, 3] | HPLC purity (%) [1, 4] | PXRD (polymorph found) [1, 4] | HPLC purity (%) [1, 5] | PXRD (polymorph found) [1, 5] | HPLC purity (%) [1, 6] | PXRD (polymorph found) [1, 6] | HPLC purity (%) [1, 7] | PXRD (polymorph found) [1, 7] | HPLC purity (%) [1, 8] | PXRD (polymorph found) [1, 8] | HPLC purity (%) [1, 9] | PXRD (polymorph found) [1, 9] | HPLC purity (%) [1, 10] | PXRD (polymorph found) [1, 10] | other results |
| --- | --- | --- | --- | --- | --- | --- | --- | --- | --- | --- | --- | --- | --- | --- | --- | --- | --- | --- | --- | --- | --- |
| C[C@@H]1CCO[C@H]2Cn3cc(C(=O)NCc4ccc(F)cc4F)c(=O)c([O-])c3C(=O)N12.[Na+] [Form-M2, sodium (4R, 12aS)-9-((2,4-difluorobenzyl)carbamoyl)-4-methyl-6,8-dioxo-3,4,6,8, 12, 12a-hexahydro-2H-pyrido[1′,2′:4,5]pyrazino[2,1-b][1,3]oxazin-7-olate] | no change in PXRD pattern | no significant degradation | no substantial increase in moisture content | physically and chemically stable | 99.6% | Form-M2 | 99.5% | Form-M2 | 99.5% | Form-M2 | 99.7% | Form-M2 | 99.6% | Form-M2 | 99.5% | Form-M2 | 99.5% | Form-M2 | 99.7% | Form-M2 | – |
| C[C@@H]1CCO[C@H]2Cn3cc(C(=O)NCc4ccc(F)cc4F)c(=O)c([O-])c3C(=O)N12.[Na+] [Form-M3, sodium (4R, 12aS)-9-((2,4-difluorobenzyl)carbamoyl)-4-methyl-6,8-dioxo-3,4,6,8, 12, 12a-hexahydro-2H-pyrido[1′,2′:4,5]pyrazino[2,1-b][1,3]oxazin-7-olate] | – | – | – | – | – | – | – | – | – | – | – | – | – | – | – | – | – | – | – | – | thermodynamic stability [2]: only metastable and not thermodynamically stable |
| C[C@@H]1CCO[C@H]2Cn3cc(C(=O)NCc4ccc(F)cc4F)c(=O)c([O-])c3C(=O)N12.[Na+] [Form-M4, sodium (4R, 12aS)-9-((2,4-difluorobenzyl)carbamoyl)-4-methyl-6,8-dioxo-3,4,6,8, 12, 12a-hexahydro-2H-pyrido[1′,2′:4,5]pyrazino[2,1-b][1,3]oxazin-7-olate] | no change in PXRD pattern | no significant degradation | no substantial increase in moisture content | physically and chemically stable | 99.17% | Form-M4 | 99.10% | Form-M4 | 99.0% | Form-M4 | 99.24% | Form-M4 | 99.2% | Form-M4 | 99.1% | Form-M4 | 99.0% | Form-M4 | 99.2% | Form-M4 | – |
